Results on 38 compounds are retold here after ChEMBL document CHEMBL4483862, “Open-source discovery of chemical leads for next-generation chemoprotective antimalarials” (2018).

The structures appear in SMILES notation.

The assay has as its system Plasmodium berghei. In words: Luciferase/luciferin-expressing antifolate-resistant parasites were used to infect a culture of HepG2 cells that were pre-incubated with compounds. Infected hepatocytes emit light due to the luciferase reaction. Assay results are presented as the percent inhibition of light emission compared to control. […]. The class given is functional. To be noted: sporozoite; for IC90: read-out: LUCIFERASE INFECTION ASSAY - IC90.

Setting [1] is: read-out: LUCIFERASE INFECTION ASSAY - IC50.

For the compound `O=C(COC(=O)C1Cc2ccccc2CN1S(=O)(=O)/C=C/c1ccccc1)c1ccccc1` (stereo unspecified), the IC90 was greater than 10 µM. Also, the IC50 (PBLUC_HILL_SLOPE 0.237, PBLUC_R_SQUARED 0.0458, read-out: LUCIFERASE INFECTION ASSAY - IC50) was greater than 10 µM.

Regarding `Cn1c(SCC#N)nnc1-c1ccc(C(C)(C)C)cc1`, the 90% effect concentration (IC90) was found to be 1.34 µM. Also, the IC50 (PBLUC_HILL_SLOPE 23.6, PBLUC_R_SQUARED 0.364, read-out: LUCIFERASE INFECTION ASSAY - IC50) came to 1.22 µM.

In the case of `Cc1ccc(-c2c(C)sc3[nH]c(CN(Cc4nc(=O)c5c(-c6ccc(C)cc6)c(C)sc5[nH]4)Cc4ccccc4CN4CCCC4)nc(=O)c23)cc1`, the IC90 was greater than 10 µM. Further, under setting [1], the IC50 was greater than 10 µM.

With `Cc1nc(NC(=O)CSc2nnc(-c3c[nH]c4ccccc34)n2C2CC2)c(Cl)cc1Cl`, the 90% effect concentration (IC90) is greater than 10 µM. Also, under “HEPG2TOX_HILL_SLOPE 15.3, 2.10, HEPG2TOX_R_SQUARED 0.288, 0.992, PBLUC_HILL_SLOPE 2.43, PBLUC_R_SQUARED 0.583, read-out: LUCIFERASE INFECTION ASSAY - IC50”, the IC50 amounted to 4.48 µM.

Consider `O=C(c1cccc(F)c1)c1cnc(Nc2cccc(Br)c2)[nH]1`, for which the 90% effect concentration (IC90) is greater than 9.16 µM. The IC50 (PBLUC_HILL_SLOPE 15, PBLUC_R_SQUARED 0.325, read-out: LUCIFERASE INFECTION ASSAY - IC50) was 8.58 µM.

As for `COc1cccc(-c2cc3c(Nc4cccc(OC(C)C)c4)nccc3n2C)c1`, the IC90 is greater than 10 µM. Further, the IC50 (PBLUC_HILL_SLOPE 2.76, PBLUC_R_SQUARED 0.246, read-out: LUCIFERASE INFECTION ASSAY - IC50) worked out at 6.87 µM.

Turning to `Cc1ccc(NCc2c(Cl)nc3sccn23)c(C)c1`, the 90% effect concentration (IC90) is greater than 11.3 µM. Also, the IC50 (HEPG2TOX_HILL_SLOPE 1.69, HEPG2TOX_R_SQUARED 0.916, PBLUC_HILL_SLOPE 2.14, PBLUC_R_SQUARED 0.29, read-out: LUCIFERASE INFECTION ASSAY - IC50) came to 10.3 µM.

As for `Cc1cc(Cl)ccc1OCC(=O)c1c(-c2ccccc2)[nH]c2ccccc12`, the IC90 was greater than 10 µM. Further, the half-maximal inhibitory concentration (IC50) (PBLUC_HILL_SLOPE 2.14, 2.22, PBLUC_R_SQUARED 0.753, 0.563, read-out: LUCIFERASE INFECTION ASSAY - IC50) turned out to be 6.03 µM.

Regarding `Cc1noc(C)c1CSc1ccccc1C(=O)NNC(=O)c1ccc2ccccc2n1`, the IC90 came out at 6.77 µM. Besides, the IC50 (HEPG2TOX_HILL_SLOPE 3.33, HEPG2TOX_R_SQUARED 0.906, PBLUC_HILL_SLOPE 141, PBLUC_R_SQUARED 0.0106, read-out: LUCIFERASE INFECTION ASSAY - IC50) was 6.66 µM.

Turning to `O=C(Nc1sc2c(c1-c1nc3ccccc3[nH]1)CCCC2)c1nc(-c2ccccc2)n(-c2ccccc2)n1`, the 90% effect concentration (IC90) was greater than 10 µM. Under setting [1], the IC50 worked out at 9.63 µM.

As for `O=c1nc(/C=C/c2cccc3cccnc23)[nH]c2sc3c(c12)CCCCC3`, the IC90 is greater than 10 µM. Moreover, the IC50 under setting [1] was greater than 10 µM.

As to `COc1cccc(-c2nc(C(=O)Nc3ccc4nc(C(C)(C)C)[nH]c4c3)cs2)c1OC`, the IC90 came out at 9.22 µM. Further, the IC50 (HEPG2TOX_HILL_SLOPE 10.6, HEPG2TOX_R_SQUARED 0.787, PBLUC_HILL_SLOPE 3.59, PBLUC_R_SQUARED 0.651, read-out: LUCIFERASE INFECTION ASSAY - IC50) stood at 4.99 µM.

Take `CCCCN=C1NN=C(C23CC4CC(CC(C4)C2)C3)C(C)S1` (stereo unspecified): the IC90 amounted to 8.93 µM. Moreover, under “PBLUC_HILL_SLOPE 3.27, PBLUC_R_SQUARED 0.411, read-out: LUCIFERASE INFECTION ASSAY - IC50”, the concentration for half-maximal inhibition (IC50) is 4.56 µM.

With `CCOC(=O)N1CCC(Nc2ncnc3c2oc2ccccc23)CC1`, the IC90 is greater than 10 µM. Moreover, under “PBLUC_HILL_SLOPE 2.64, PBLUC_R_SQUARED 0.787, read-out: LUCIFERASE INFECTION ASSAY - IC50”, the IC50 worked out at 6.72 µM.

With `CC(=O)Nc1cccc(Nc2nccc3[nH]c(-c4ccccc4)cc23)c1`, the IC90 was 0.748 µM. In addition, the half-inhibitory concentration (IC50) (HEPG2TOX_HILL_SLOPE 1.53, HEPG2TOX_R_SQUARED 0.824, PBLUC_HILL_SLOPE 2.66, PBLUC_R_SQUARED 0.657, read-out: LUCIFERASE INFECTION ASSAY - IC50) is 0.328 µM.

Regarding `CC(C)c1ccc(-c2cnc3sc(NC4CCC(O)CC4)nn23)cc1` (stereo unspecified), the IC90 was greater than 9.26 µM. Where the note is “PBLUC_HILL_SLOPE 11.9, PBLUC_R_SQUARED 0.449, read-out: LUCIFERASE INFECTION ASSAY - IC50”, the IC50 was 8.25 µM.

With `CCOC(=O)c1c(C)[nH]c(C)c1C(=O)COC(=O)c1c(OC)cccc1OC`, the IC90 was greater than 10 µM. In addition, the IC50 under setting [1] is greater than 10 µM.

For `CC(Oc1ccc(Cl)cc1Cl)C(=N)NO` (stereo unspecified), the IC90 was greater than 13.2 µM. Also, under setting [1], the half-inhibitory concentration (IC50) is greater than 13.2 µM.

With `COc1cc(/C=C2\COc3c(Cl)cc(Cl)cc3C2=O)cc(OC)c1O`, the IC90 amounted to 7.17 µM. Moreover, where the note is “FFLUC_HILL_SLOPE 30.3, FFLUC_R_SQUARED 0.145, HEPG2TOX_HILL_SLOPE 11.5, HEPG2TOX_R_SQUARED 0.166, PBLUC_HILL_SLOPE 35.9, PBLUC_R_SQUARED 0.493, read-out: LUCIFERASE INFECTION ASSAY - IC50”, the IC50 stood at 6.74 µM.

`c1ccc(Oc2cccc(-c3ccc4nnc(-c5ccc6c(c5)OCO6)n4c3)c2)cc1`: the IC90 was greater than 10 µM. The 50% inhibitory concentration (IC50) (PBLUC_HILL_SLOPE 1.92, PBLUC_R_SQUARED 0.18, read-out: LUCIFERASE INFECTION ASSAY - IC50) was 8.29 µM.

`Cc1onc(-c2ccccc2)c1-c1ccnn1C(=O)Nc1cccc(C(F)(F)F)c1`: the concentration for an effect of 90% (IC90) is greater than 8 µM. Further, the IC50 (PBLUC_HILL_SLOPE 13.1, PBLUC_R_SQUARED 0.207, read-out: LUCIFERASE INFECTION ASSAY - IC50) worked out at 7.19 µM.

Consider `O=C(Nc1ccc(N2CCOCC2)nc1)c1ccc(S(=O)(=O)N2CCCc3ccccc32)cc1`, for which the IC90 was greater than 10 µM. In addition, the IC50 (HEPG2TOX_HILL_SLOPE 1.57, HEPG2TOX_R_SQUARED 0.865, PBLUC_HILL_SLOPE 1.66, PBLUC_R_SQUARED 0.608, read-out: LUCIFERASE INFECTION ASSAY - IC50) came to 2.98 µM.

For `CC(=O)NCCc1nccn1Cc1ccccc1`, the IC90 was greater than 10 µM. Further, the IC50 under setting [1] is greater than 10 µM.

`COc1cc(OC)c(OC)cc1CNC(=O)c1ccc2[nH]c3c(c2c1)CCCC3`: the 90% effect concentration (IC90) was greater than 10 µM. Moreover, under “PBLUC_HILL_SLOPE 2.72, PBLUC_R_SQUARED 0.276, read-out: LUCIFERASE INFECTION ASSAY - IC50”, the IC50 was 9.2 µM.

Consider `Nc1nc(Cl)cc(Sc2ccc3ccccc3c2)n1`, for which the concentration for an effect of 90% (IC90) is greater than 11.5 µM. Further, where the note is “HEPG2TOX_HILL_SLOPE 6.9, HEPG2TOX_R_SQUARED 0.449, read-out: LUCIFERASE INFECTION ASSAY - IC50”, the concentration for half-maximal inhibition (IC50) was greater than 11.5 µM.

As for `O=C(NNC(=O)c1cc2c(s1)CCC2)c1csc(COc2ccc(F)cc2)n1`, the IC90 turned out to be 8.59 µM. Besides, for the setting “PBLUC_HILL_SLOPE 2.84, PBLUC_R_SQUARED 0.402, read-out: LUCIFERASE INFECTION ASSAY - IC50”, the IC50 turned out to be 3.96 µM.

For the compound `Cc1cc(Nc2ccc(C(c3ccc(C(=O)O)cc3)c3ccc(Nc4cc(C)nn4-c4ccccc4)nc3Cl)c(Cl)n2)n(-c2ccccc2)n1`, the IC90 was greater than 10 µM. Moreover, under “PBLUC_HILL_SLOPE 2.61, PBLUC_R_SQUARED 0.324, read-out: LUCIFERASE INFECTION ASSAY - IC50”, the concentration for half-maximal inhibition (IC50) was 6.2 µM.

Consider `O=C(Cc1csc(-c2ccc(C(F)(F)F)cc2)n1)NCc1cnn(-c2ccccc2)c1`, for which the concentration for an effect of 90% (IC90) is greater than 10 µM. The IC50 under setting [1] was greater than 10 µM.

As to `O=C(NC(=S)Nc1ccc(Oc2cc(C(F)(F)F)cc(C(F)(F)F)c2)cc1)c1ccccc1`, the IC90 is 4.3 µM. Under “PBLUC_HILL_SLOPE 1.93, PBLUC_R_SQUARED 0.641, read-out: LUCIFERASE INFECTION ASSAY - IC50”, the IC50 came out at 1.37 µM.

For the compound `CC(=O)c1ccc(NC(=O)c2cc(-c3cc(C)ccc3C)nc3ccccc23)cc1`, the IC90 is greater than 8.37 µM. Under “PBLUC_HILL_SLOPE 2.38, PBLUC_R_SQUARED 0.305, read-out: LUCIFERASE INFECTION ASSAY - IC50”, the half-maximal inhibitory concentration (IC50) is 4.56 µM.

Consider `Cn1nc(CC(=O)N2CC(C(=O)N3CCCCC3)Oc3ccccc32)c2ccccc2c1=O` (stereo unspecified), for which the IC90 was greater than 10 µM. Further, the IC50 under setting [1] was greater than 10 µM.

With `O=C(CN1C(=O)CSc2ccc(C(F)(F)F)cc21)Nc1ccc(Cl)cc1`, the concentration for an effect of 90% (IC90) worked out at 3.03 µM. Moreover, the 50% inhibitory concentration (IC50) (PBLUC_HILL_SLOPE 15.8, PBLUC_R_SQUARED 0.354, read-out: LUCIFERASE INFECTION ASSAY - IC50) came out at 2.64 µM.

As to `CN(C)C(=O)CC(NC(=O)Nc1ccc(F)cc1F)c1ccccc1` (stereo unspecified), the 90% effect concentration (IC90) is greater than 10 µM. Besides, the 50% inhibitory concentration (IC50) under setting [1] is greater than 10 µM.

On to `CCN(C(=O)COC(=O)c1nc(-c2ccccc2)n2c1CCCCC2)c1ccccc1`, for which the 90% effect concentration (IC90) was greater than 10 µM. Besides, under setting [1], the half-inhibitory concentration (IC50) was greater than 10 µM.

Consider `Cc1nn(-c2ccccc2C(F)(F)F)c2nc(-c3ccccc3)cc(C(=O)N3CCCC(C)C3)c12` (stereo unspecified), for which the IC90 was greater than 10 µM. Where the note is “PBLUC_HILL_SLOPE 14.7, PBLUC_R_SQUARED 0.435, read-out: LUCIFERASE INFECTION ASSAY - IC50”, the half-inhibitory concentration (IC50) was found to be 9.53 µM.

On to `O=C(CSc1ccc(S(=O)(=O)N2CCOCC2)cn1)NC(c1ccccc1)c1cccs1` (stereo unspecified), for which the concentration for an effect of 90% (IC90) is greater than 10 µM. Further, the IC50 under setting [1] was greater than 10 µM.

`COc1cc(-c2cc3c(cn2)nc(NCc2cccc(C)c2)n3C)ccc1O`: the concentration for an effect of 90% (IC90) is greater than 10 µM. Further, the concentration for half-maximal inhibition (IC50) under setting [1] is greater than 10 µM.

On to `C=CCOC(=O)C1=C(C)N(c2ccc3c(c2)OCCO3)C(=S)NC1c1ccc(F)cc1F` (stereo unspecified), for which the 90% effect concentration (IC90) is greater than 10 µM. The IC50 (PBLUC_HILL_SLOPE 2.28, PBLUC_R_SQUARED 0.442, read-out: LUCIFERASE INFECTION ASSAY - IC50) came out at 5.73 µM.
